In patent publication US20130345420A9, “SELECTIVE INHIBITORS OF EXCITATORY AMINO ACID TRANSPORTER SUBTYPE 1 (EAAT1/GLAST)” (priority 2008, published 2013):
Where two headings read alike, the source gives them in different places. One block for each compound: values may come before it.

Columns and labels:
human EAAT1 = target: T1, human EAAT1 (Homo sapiens, UniProt P43003); assay: [3H]-D-Aspartic acid uptake assay, HEK293 cells stably expressing EAAT1; assay type: cell-based
T1 construct: expressed in transfected cells
T1 sequence (P43003 whole entry): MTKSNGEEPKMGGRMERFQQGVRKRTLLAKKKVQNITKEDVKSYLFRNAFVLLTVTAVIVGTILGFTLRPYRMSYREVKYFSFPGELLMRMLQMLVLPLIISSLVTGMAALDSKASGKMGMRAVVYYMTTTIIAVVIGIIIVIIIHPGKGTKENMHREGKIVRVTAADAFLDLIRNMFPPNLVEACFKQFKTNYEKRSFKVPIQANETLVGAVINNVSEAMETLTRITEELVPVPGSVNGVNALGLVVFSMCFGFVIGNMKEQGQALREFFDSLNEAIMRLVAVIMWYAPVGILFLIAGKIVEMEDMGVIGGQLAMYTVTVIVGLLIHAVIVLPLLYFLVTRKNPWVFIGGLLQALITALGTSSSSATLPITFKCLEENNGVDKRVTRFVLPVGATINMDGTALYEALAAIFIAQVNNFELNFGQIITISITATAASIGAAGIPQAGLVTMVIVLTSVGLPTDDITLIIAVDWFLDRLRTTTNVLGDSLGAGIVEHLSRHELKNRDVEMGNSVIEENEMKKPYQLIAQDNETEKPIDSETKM
Protocol: (§1) Table 1: Inhibition of [^3H]-D-Asp uptake in HEK293 cells stably expressing human EAAT1, EAAT2 and EAAT3. The IC50 values are given in μM with pIC50±S.E.M. values in brackets (n=3-7).
(§2) The functional properties of the novel compounds of the invention were assessed in a [^3H]-D-Aspartic acid uptake assay using HEK293 cell lines stably expressing the human EAAT subtypes EAAT1, EAAT2 and EAAT3. Furthermore, some of the compounds were assayed at human EAAT1, EAAT2 and EAAT3 and the rat orthologs GLAST, GLT-1 and EAAC-1 in the FLIPR® Membrane Potential (FMP) Blue assay (Molecular Devices, Crawley, UK).
(§3) FIG. I depicts a graph showing the concentration-inhibition curves for 1o at the human EAAT subtype EAAT1 stably expressed in HEK293 cell lines in a [^3H]-D-aspartic acid uptake assay. The cells (grown in wells of 96-well plates) were washed twice with assay buffer, and incubated with buffer supplemented with 30 nM [^3H]-D-aspartic acid in the absence (control) or presence of increasing concentrations of 1o at […] for 7 min. The assay mixtures were then quickly removed from the wells, and the cells were washed with 3 times with ice-cold buffer, scintillation fluid was added to each well, and the plate was counted in a TopCounter.

human EAAT2 = target: T2, human EAAT2 (Homo sapiens, UniProt P43004); assay: [3H]-D-Aspartic acid uptake assay, HEK293 cells stably expressing EAAT2; assay type: cell-based; conditions: n=3-7, read-out: Inhibition of [3H]-D-Asp uptake, EAAT2, IC50
T2 construct: expressed in transfected cells
T2 sequence (P43004 whole entry): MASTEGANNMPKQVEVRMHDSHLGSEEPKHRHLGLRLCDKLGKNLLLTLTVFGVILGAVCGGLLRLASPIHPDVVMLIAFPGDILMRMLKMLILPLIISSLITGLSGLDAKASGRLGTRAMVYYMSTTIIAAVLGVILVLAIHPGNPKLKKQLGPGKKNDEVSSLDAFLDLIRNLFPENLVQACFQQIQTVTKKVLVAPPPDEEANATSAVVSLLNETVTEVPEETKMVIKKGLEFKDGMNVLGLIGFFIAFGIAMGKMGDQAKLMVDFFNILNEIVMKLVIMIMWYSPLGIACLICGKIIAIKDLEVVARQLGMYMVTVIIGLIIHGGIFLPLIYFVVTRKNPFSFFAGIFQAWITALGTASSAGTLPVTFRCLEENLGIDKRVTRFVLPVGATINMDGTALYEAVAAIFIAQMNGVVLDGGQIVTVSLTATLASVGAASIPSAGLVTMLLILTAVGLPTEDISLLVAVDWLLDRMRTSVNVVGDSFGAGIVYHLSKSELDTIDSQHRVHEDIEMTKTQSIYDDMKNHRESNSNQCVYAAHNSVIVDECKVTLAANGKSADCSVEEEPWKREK
Protocol: as §1, §2, §3

human EAAT3 = target: T3, human EAAT3 (Homo sapiens, UniProt P43005); assay: [3H]-D-Aspartic acid uptake assay, HEK293 cells stably expressing EAAT3; assay type: cell-based; conditions: n=3-7, read-out: Inhibition of [3H]-D-Asp uptake, EAAT3, IC50
T3 construct: expressed in transfected cells
T3 sequence (P43005 1-524): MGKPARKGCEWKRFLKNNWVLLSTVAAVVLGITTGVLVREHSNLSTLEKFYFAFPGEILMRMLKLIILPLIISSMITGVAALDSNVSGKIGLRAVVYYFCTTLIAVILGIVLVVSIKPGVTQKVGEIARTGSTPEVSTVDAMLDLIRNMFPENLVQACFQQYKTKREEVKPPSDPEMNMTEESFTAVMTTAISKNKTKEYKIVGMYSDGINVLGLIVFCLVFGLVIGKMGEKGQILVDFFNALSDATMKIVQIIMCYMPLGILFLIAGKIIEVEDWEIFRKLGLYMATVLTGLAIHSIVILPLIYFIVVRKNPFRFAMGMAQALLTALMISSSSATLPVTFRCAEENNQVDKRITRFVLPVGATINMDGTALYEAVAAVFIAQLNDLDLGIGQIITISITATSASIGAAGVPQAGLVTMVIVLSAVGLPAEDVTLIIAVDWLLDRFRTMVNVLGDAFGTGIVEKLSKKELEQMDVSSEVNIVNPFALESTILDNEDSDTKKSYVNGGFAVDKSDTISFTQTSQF
Protocol: as §1, §2, §3

Solubility in solvents = assay type: physicochemical; conditions: aq buffer solutions (pH=7.4), DMSO and CDCl3
[1] = HEK293 cells stably expressing human EAAT1, n=3-7, read-out: Inhibition of [3H]-D-Asp uptake, EAAT1, IC50
[2] = HEK293 cells stably expressing human EAAT1, value in brackets, n=3-7
[3] = HEK293 cells stably expressing human EAAT1, value in brackets, n=3-7, read-out: Inhibition of [3H]-D-Asp uptake, EAAT1, pIC50±S.E.M. (converted)

SMILES: COc1ccc(C2C(C#N)=C(N)OC3=C2C(=O)CC(c2ccccc2)C3)cc1 (stereo not shown) [1c, 2-Amino-4-(4-methoxyphenyl)-7-(phenyl)-5-oxo-5,6,7,8-tetrahydro-4H-chromene-3-carbonitrile]
IC50 (human EAAT1; [1]): 2.3 µM
Inhibition of [3H]-D-Asp uptake, EAAT1, pIC50±S.E.M. (human EAAT1; [2]): 5.64 ± 0.05

SMILES: COc1cccc(C2C(C#N)=C(N)OC3=C2C(=O)CC(c2ccccc2)C3)c1OC (stereo not shown) [1f]
IC50 (human EAAT1; [3]): ~50.1 µM

SMILES: COc1ccc(C2C(C#N)=C(N)OC3=C2C(=O)CC(c2ccco2)C3)cc1OC(=O)N1CCOCC1 (stereo not shown) [1q]
IC50 (human EAAT1): ~100 µM

The next lines start with the values.

IC50 (human EAAT1; [1]): ~30 µM
SMILES: N#CC1=C(N)OC2=C(C(=O)CC(c3ccccc3)C2)C1c1cccnc1 (stereo not shown) [1s]

IC50 (human EAAT1; [1]): 11 µM
Inhibition of [3H]-D-Asp uptake, EAAT1, pIC50±S.E.M. (human EAAT1; [2]): 4.97 ± 0.05
IC50 (human EAAT2): > 300 µM
IC50 (human EAAT3): > 300 µM
melting point: 159.9 to 161.4 °C
SMILES: COc1ccc(C2C(C#N)=C(N)OC3=C2C(=O)CC(c2ccc(OC)c(OC)c2)C3)cc1 (stereo not shown) [1n, 2-Amino-4-(4-methoxyphenyl)-7-(3,4-dimethoxyphenyl)-5-oxo-5,6,7,8-tetrahydro-4H-chromene-3-carbonitrile]

IC50 (human EAAT1; [1]): 0.58 µM
IC50 (human EAAT1; [3]): 0.562 µM
IC50 (human EAAT2): > 300 µM
Solubility in comparison with 1o (Solubility in solvents): significantly more soluble
IC50 (human EAAT3): > 300 µM
SMILES: CC1C(C#N)=C(N)OC2=C1C(=O)CC(c1cccc3ccccc13)C2 (stereo not shown) [1w, 2-Amino-4-methyl-7-(naphthalene-1-yl)-5-oxo-5,6,7,8-tetrahydro-4H-chromene-3-carbo-nitrile]

IC50 (human EAAT1; [1]): ~30 µM
SMILES: N#CC1=C(N)OC2=C(C(=O)CC(c3ccccc3)C2)C1Cc1ccccc1 (stereo not shown) [1u]
